Tests used:
Settings in all cases: 72 h
[1] = system: myeloid leukemia patient primary cells Pat.15; assay: cell viability (% survival relative to DMSO control); higher = less cytotoxic
Method in brief: (§1)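 Mononuclear cells from patients with AML or CML were thawed, purified on Ficoll and placed in RPMI 1640 with 10% FBS at 10,000 cells/well on 384-well plates. The plates came pre-printed with 70 compounds at five tenfold concentrations spanning 1–10,000 nM, in duplicate, and cells were exposed for 72 h. CellTiter-Glo gave viability, scaled between DMSO wells and wells with 10 μM proteasome inhibitor. Where reported, area under the curve was obtained from log-logistic fits with four parameters using the drc and PharmacoGx R packages.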

[2] = system: myeloid leukemia patient primary cells Pat.2; assay: as above
Method in brief: as §1

[3] = system: myeloid leukemia patient primary cells Pat.7; assay: as above
Method in brief: as §1

[4] = system: myeloid leukemia patient primary cells Pat.14; assay: as above
Method in brief: as §1

[5] = system: myeloid leukemia patient primary cells Pat.1; assay: as above
Method in brief: as §1

[6] = system: myeloid leukemia patient primary cells Pat.4; assay: as above
Method in brief: as §1

[7] = system: myeloid leukemia patient primary cells Pat.10; assay: as above
Method in brief: as §1

[8] = system: myeloid leukemia patient primary cells Pat.9; assay: as above
Method in brief: as §1

[9] = system: myeloid leukemia patient primary cells Pat.6; assay: as above
Method in brief: as §1

[10] = system: myeloid leukemia patient primary cells Pat.13; assay: as above
Method in brief: as §1

[11] = system: myeloid leukemia patient primary cells Pat.11; assay: as above
Method in brief: as §1

[12] = system: myeloid leukemia patient primary cells Pat.5; assay: as above
Method in brief: as §1

[13] = system: myeloid leukemia patient primary cells Pat.12; assay: as above
Method in brief: as §1

[14] = system: myeloid leukemia patient primary cells Pat.8; assay: as above
Method in brief: as §1

HL-60 = assay: area under dose-response curve (viability, 1 nM-10 uM) (fraction (0-1)); higher = more sensitive
Method in brief: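 HL-60 cells in RPMI 1640 with 10% FBS were rescreened against the full library on 384-well plates at five tenfold concentrations, 1–10,000 nM, in duplicate. Each screen was run with DMSO or 100 nM of one of three metabolic inhibitors, for 72 h at 37 °C, 5% CO2. Viability was read by CellTiter-Glo and normalised to DMSO and 10 μM proteasome-inhibitor wells. Where given, area under the curve came from four-parameter log-logistic fits (drc, PharmacoGx).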

Mono-Mac-6 = assay: cell viability (% survival relative to DMSO control, bortezomib = 0%); higher = less cytotoxic
Method in brief: (§2)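 Fifteen myeloid leukaemia cell lines (10 AML, 5 CML) were seeded at a density titrated to the linear growth range into 384-well plates pre-printed with compounds at 1, 10, 100, 1000 or 10000 nM in duplicate. Plates were incubated for 72 h at 37 °C with 5% CO2. Viability was then read by CellTiter-Glo luminescence. Each value is percent survival averaged over the duplicates, with vehicle set to 100% and a 10 µM positive control to 0%.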

HEL = assay: as above
Method in brief: as §2

SHI-1 = assay: as above
Method in brief: as §2

Nc1nc(Cl)nc2c1ncn2[C@H]1C[C@H](O)[C@@H](CO)O1 [Cladribine]
Settings	area under dose-response curve, co-treatment: AZD3965 100 nM	area under dose-response curve, co-treatment: DMSO vehicle	area under dose-response curve, co-treatment: GSK2194069 100 nM	area under dose-response curve, co-treatment: pictilisib 100 nM	cell viability, 1 nM [%]	cell viability, 10 nM [%]	cell viability, 100 nM [%]	cell viability, 1000 nM [%]	cell viability, 10000 nM [%]
HEL	–	–	–	–	105	99.2	3.91	0.404	0.141
HL-60	0.45	0.394	0.459	0.515	–	–	–	–	–
Mono-Mac-6	–	–	–	–	113	82.5	1.25	0.0892	-0.125
SHI-1	–	–	–	–	87.7	88.7	13.6	0.494	-0.0158
[1]	–	–	–	–	95.4	82.7	88.4	60.2	13.9
[2]	–	–	–	–	> 100	89.8	53.5	15.5	10.1
[3]	–	–	–	–	97.6	82.8	17.1	< 0	< 0
[4]	–	–	–	–	90.7	75.3	17.3	3.16	0.937
[5]	–	–	–	–	95.2	98.3	> 100	90.3	94.1
[6]	–	–	–	–	99	55.6	13.5	4.74	6.11
[7]	–	–	–	–	95	33.1	0.135	2.16	6.29
[8]	–	–	–	–	84.9	34	< 0	1.24	4.28
[9]	–	–	–	–	95.1	74.3	19.2	6.84	6.92
[10]	–	–	–	–	96.2	54.6	12.5	4.44	4.27
[11]	–	–	–	–	> 100	96.6	76.6	59.8	63.8
[12]	–	–	–	–	50.7	35.2	9.01	0.265	1.33
[13]	–	–	–	–	94.5	83.1	54.4	20.5	7.86
[14]	–	–	–	–	88.1	77.7	12.6	3.65	3.19

N#CC(C#N)=NNc1ccc(OC(F)(F)F)cc1 [FCCP]
Settings	area under dose-response curve, co-treatment: AZD3965 100 nM	area under dose-response curve, co-treatment: DMSO vehicle	area under dose-response curve, co-treatment: GSK2194069 100 nM	area under dose-response curve, co-treatment: pictilisib 100 nM	cell viability, 1 nM [%]	cell viability, 10 nM [%]	cell viability, 100 nM [%]	cell viability, 1000 nM [%]	cell viability, 10000 nM [%]
HEL	–	–	–	–	120	94.1	92.7	79.9	1.52
HL-60	0.104	0.106	0.0946	0.107	–	–	–	–	–
Mono-Mac-6	–	–	–	–	100	92	96.1	82.8	3.03
SHI-1	–	–	–	–	94.6	103	101	91.5	35.1
[1]	–	–	–	–	91.2	99.1	94.5	81.5	3.23
[2]	–	–	–	–	92.5	90.8	> 100	95.3	30
[3]	–	–	–	–	82.8	82.5	93.6	< 0	< 0
[4]	–	–	–	–	67.3	93.7	94.6	17.4	0.937
[5]	–	–	–	–	90.1	89.9	> 100	59.9	5.44
[6]	–	–	–	–	89	90.4	97.9	53.6	4.18
[7]	–	–	–	–	66.5	64	50.5	7.03	2.16
[8]	–	–	–	–	54	63.1	82.9	3.45	0.492
[9]	–	–	–	–	87	97.4	88.8	65.5	20
[10]	–	–	–	–	85	> 100	89.8	59.4	4.66
[11]	–	–	–	–	98	97.3	> 100	82.4	9.9
[12]	–	–	–	–	19.1	52.4	14.8	< 0	3.45
[13]	–	–	–	–	> 100	93.3	99.7	89.5	36.1
[14]	–	–	–	–	71.4	91.6	82.1	89.1	3.73

O=C1c2cc([N+](=O)[O-])ccc2-n2c1nc1ccccc1c2=O [GNF-Pf-3777]
Settings	area under dose-response curve, co-treatment: AZD3965 100 nM	area under dose-response curve, co-treatment: DMSO vehicle	area under dose-response curve, co-treatment: GSK2194069 100 nM	area under dose-response curve, co-treatment: pictilisib 100 nM	cell viability, 1 nM [%]	cell viability, 10 nM [%]	cell viability, 100 nM [%]	cell viability, 1000 nM [%]	cell viability, 10000 nM [%]
HEL	–	–	–	–	98.5	105	105	53.1	13.6
HL-60	0.15	0.122	0.154	0.165	–	–	–	–	–
Mono-Mac-6	–	–	–	–	86.3	104	90.9	66.3	6.53
SHI-1	–	–	–	–	99.9	104	92	66.6	16.5
[1]	–	–	–	–	90.6	89.1	96.8	87.9	40.2
[2]	–	–	–	–	98.3	93.2	95.5	93.7	62.3
[3]	–	–	–	–	95.9	70.7	> 100	97.1	21.8
[4]	–	–	–	–	96.8	95	96.8	85.7	54.2
[5]	–	–	–	–	> 100	94.8	86.5	77.2	65.1
[6]	–	–	–	–	97.7	97	96	79.5	19
[7]	–	–	–	–	61.7	47.7	77.9	36.6	15.5
[8]	–	–	–	–	82.9	68.9	60.9	63.4	25.8
[9]	–	–	–	–	> 100	98.8	98.6	94.3	66.8
[10]	–	–	–	–	94.2	96.4	96.6	80.8	35.8
[11]	–	–	–	–	> 100	97.9	94	86.8	64.4
[12]	–	–	–	–	> 100	63	73	36.1	3.37
[13]	–	–	–	–	98	96.3	99.1	99.3	78.6
[14]	–	–	–	–	97.5	94.9	88.4	84	64.9

O=C(O)Cn1nnc(-c2cc(N3CCC(Oc4cc(F)ccc4Br)CC3)no2)n1 [MK-8245]
Settings	area under dose-response curve, co-treatment: AZD3965 100 nM	area under dose-response curve, co-treatment: DMSO vehicle	area under dose-response curve, co-treatment: GSK2194069 100 nM	area under dose-response curve, co-treatment: pictilisib 100 nM	cell viability, 1 nM [%]	cell viability, 10 nM [%]	cell viability, 100 nM [%]	cell viability, 1000 nM [%]	cell viability, 10000 nM [%]
HEL	–	–	–	–	108	115	75.6	92.7	91.2
HL-60	< 0.0301	< 0.0301	< 0.0301	< 0.0301	–	–	–	–	–
Mono-Mac-6	–	–	–	–	91.1	90.8	94.2	94.6	88
SHI-1	–	–	–	–	99	119	103	97.8	90.8
[1]	–	–	–	–	95.9	91.5	93.5	> 100	95.2
[2]	–	–	–	–	> 100	97	> 100	> 100	96.3
[3]	–	–	–	–	97.4	93.6	82.9	> 100	56.7
[4]	–	–	–	–	95.5	90.3	99.3	90.2	89.8
[5]	–	–	–	–	96.4	77.4	98	97.5	98.5
[6]	–	–	–	–	97.3	96.4	81	97.3	> 100
[7]	–	–	–	–	56.6	80.7	> 100	54.5	4.72
[8]	–	–	–	–	82.3	69.4	79.2	85.3	71.9
[9]	–	–	–	–	97.8	97.2	97.3	> 100	97
[10]	–	–	–	–	87.2	88.5	99.8	95.8	95.5
[11]	–	–	–	–	> 100	96.4	> 100	> 100	97
[12]	–	–	–	–	> 100	93.9	90.6	94.3	70
[13]	–	–	–	–	> 100	88.3	> 100	95.7	93.6
[14]	–	–	–	–	> 100	89.4	94.8	91.6	> 100

C=C(C=NNC(=N)N)NNC(=N)N [Mitoguazone]
Settings	area under dose-response curve, co-treatment: AZD3965 100 nM	area under dose-response curve, co-treatment: DMSO vehicle	area under dose-response curve, co-treatment: GSK2194069 100 nM	area under dose-response curve, co-treatment: pictilisib 100 nM	cell viability, 1 nM [%]	cell viability, 10 nM [%]	cell viability, 100 nM [%]	cell viability, 1000 nM [%]	cell viability, 10000 nM [%]
HEL	–	–	–	–	103	108	97.5	93.2	50.4
HL-60	0.0689	< 0.0301	0.0353	0.0324	–	–	–	–	–
Mono-Mac-6	–	–	–	–	92.4	92.3	85.5	55.3	18.1
SHI-1	–	–	–	–	93.8	89.2	95.4	59.8	20.6
[1]	–	–	–	–	89.7	82.8	91.4	69.4	19.6
[2]	–	–	–	–	96.2	79.2	49.2	50	67.7
[3]	–	–	–	–	65.3	85.7	< 0	< 0	54.5
[4]	–	–	–	–	91.4	54.7	4.62	2.41	80.8
[5]	–	–	–	–	86.1	72.5	93.5	94.2	69
[6]	–	–	–	–	92.5	82.3	48.1	92.3	44.2
[7]	–	–	–	–	78.7	59.4	13.6	28.1	89.2
[8]	–	–	–	–	75.2	50.8	1.24	1.6	57.2
[9]	–	–	–	–	> 100	82	44.5	1.04	50.8
[10]	–	–	–	–	88.3	78.5	91.2	50.8	> 100
[11]	–	–	–	–	98.8	92.1	> 100	98.6	84.1
[12]	–	–	–	–	> 100	0.912	0.265	1.33	78.9
[13]	–	–	–	–	> 100	90	99.3	96.9	99.4
[14]	–	–	–	–	94.1	69	50	99.8	94.2
